# Laboratory results as given in EP0314302A2, “Herbicidal o-carbomethoxy-sulfonylureas” (E.I. DU PONT DE NEMOURS AND COMPANY, priority 1987, dated 1989).
# Assays:
# Bromus tectorum = assay: Test 1 greenhouse, preemergence; format: in vivo; conditions: 21 days, scale 0-100
# Method: (§1) Seeds of Bromus tectorum, Kochia scoparia, Salsoa kali, Avena fatua, Convolvulus arvensis, Secale cereale, Setaria viridis and Triticum aestivum were placed in 26-cm plastic pans containing a pasteurized sandy loam soil (pH 6.5, 1% organic matter). Plantings were maintained in the greenhouse for 18-28 days at which time the postemergence treatments were applied using a nonphytotoxic solvent as the carrier for the herbicide. The preemergence segment of the test was seeded immediately before herbicide application using Bromus tectorum, Kochia scoparia, Polygonum convolvulus, Salsoa kali, Avena fatua, Convolvulus arvensis, Secale cereale, Setaria viridis, Aegilops cylindrica, Amaranthus retroflexus, Chenopodium album, Hordeum vulgare, Triticum aestivum, Sorghum bicolor, and Zea mays. All treatments were maintained in the greenhouse for an additional 21 days at which time visual assessment of weed control was determined using a scale of 0 to 100 for each species where 0 represented no control and 100 represented complete control.
# Hordeum vulgare = assay: Test 1 greenhouse, preemergence; format: in vivo; conditions: 21 days, scale 0-100
# Method: as §1
# Kochia scoparia = assay: Test 1 greenhouse, preemergence; format: in vivo; conditions: 21 days, scale 0-100
# Method: as §1
# Secale cereale = assay: Test 1 greenhouse, preemergence; format: in vivo; conditions: 21 days, scale 0-100
# Method: as §1
# Guinea Grass = assay: Test 3 postemergence weed control; format: in vivo, Panicum maximum; conditions: 32 g/ha, scale 0-100
# Method: (§2) Seeds of crabgrass (Digitaria spp), guinea grass (Panicum maximum) and narrowleaf panicum (P. maximum) were planted in 15-cm plastic pots. The weeds were treated postemergence with compound I, formulated in a non-phytotoxic solvent, when the plants had 3 or more leaves and had tillered. The degree of weed control was visually rated 17 days after compound application (DAT). Control ratings were based on a scale of 0 to 100 where 0 = no effect, 20 = minimal control and 100 = complete control.
# Narrowleaf panicum = assay: Test 3 postemergence weed control; format: in vivo, P. maximum; conditions: 32 g/ha, scale 0-100
# Method: as §2
# Itchgrass = assay: Test 5 sugarcane injury and weed control, postemergence; format: in vivo, Rottboellia exaltata; conditions: scale 0-100
# Method: Sugarcane (Saccharum spp.) cuttings which had been pre-sprouted were planted in 15-cm plastic pots. Narrowleaf panicum (Panicum maximum), large crabgrass (Digitaria sanguinalis), guineagrass (P. maximum) and itchgrass (Rottboellia exaltata) were seeded in individual 15-cm plastic pots.
# The pots were treated postemergence when the plants had 3 to 4 leaves with 2 to 3 tillers with Compound I formulated in a non-phytotoxic carrier made up of acetone-humectant-water-surfactant (22:1:1:0.05 v/v). The degree of crop injury and weed control was visually rated 27 days after treatment (DAT). Plant injury ratings are based on the scale of 0 to 100 where 0 = no effect, 20 = minimal injury and 100 = complete control.
# coffee = assay: Test 6 effect of surfactants, postemergence; format: in vivo, Coffea spp; conditions: addition of a surfactant
# Excerpt: The object of this test was to evaluate the effect of surfactants and plant growth stage on the efficacy of the compound of this invention. Plastic windowsill pots were filled with planting medium and seeded with yellow nutsedge (Cyperus esculentus), large crabgrass (Digitaria sanguinalis), goosegrass (Elsusine indica), bermudagrass (Cynodon dactylon), broadleaf signalgrass (Brachiara platyphalla), smooth crabgrass (Digitaria ischaemum), guinea grass (Panicum maximum) and johnsongrass (Sorghum halapense). Coffee (Coffea spp) plants with 2 to 4 branches were included in one test.
# Plants were treated postemergence with Compound I formulated with different surfactants or a non-phytotoxic carrier made up of acetone-humectant-water-surfactant.
# Sheperdspurse = assay: Test 7 postemergence; format: in vivo, Capsella bursa-pastoris; conditions: scale 0-100
# Method: Individual 11.4-cm plastic pots filled with planting medium were seeded with rape, wild radish (Raphanus raphanistruna). tansy mustard (Descurainia pinnata), ball mustard (Neslia paniculata), black mustard (Brassica nigra), yellow mustard, brown mustard, lentils, safflower, flax, sunflower, peanut, vetch, alfalfa, field bean, pea, violet (Viola spp), Kochia (Kochia spp), Russian thistle (Salsola spp), Matricaria spp, groundsel (Senecio spp), shepherdspurse (Capsella bursa-pastoris), nightshade (Solanum spp), sowthistle (Sonchus spp), sugar beet, wheat, "Bonanza" barley and "Morex" barley, Kentucky bluegrass (Poa pratensis), red clover (Trifolium pratense), dandelion (Taraxacum spp) and buckhorn plantain (Plantago lanceolata).
# Plants were treated postemergence with the compound formulated with a non-phytotoxic carrier. Plants were visually rated 18 days after treatment (DAT). Response ratings were based on the scale of 0 to 100 where 0 = no effect, 20 = minimal injury and 100 = complete control.
# Yellow nutsedge = assay: Test 11 citrus pots, preemergence to the weeds; format: in vivo, Cyperus esculentus; conditions: Preemergence 32 g/ha; 0.25% X-77 surfactant; scale 0-100
# Method: (§3) Budded citrus seedlings were planted in 30-liter plastic pots which were also seeded with sandbur, guineagrass, narrowleaf panicum, common ragweed, yellow nutsedge, purple nutsedge and bindweed. Compound I was applied preemergence and postemergence to the weeds. Treatments were sprayed to simulate the trunk-to-trunk herbicide application method used in some citrus groves. The compound was also applied postemergence to weeds grown in windowsill flats. The flats were filled with planting medium and seeded with morningglory (Ipomoea spp.). purple nutsedge (Cyperus rotundus), pigweed (Amaranthus spp.), bindweed (Convolvulus spp.), narrowleaf panicum (Panicum maximum), common ragweed (Ambrosia artemisiifolia), sandbur (Cenchrus echinatus), itchgrass (Rottboellia exaltata), johnsongrass (Sorghum halepense), guineagrass (Panicum maximum), smooth crabgrass (Digitaria ischaemum), broadleaf signalgrass (Brachiaria platyphylla), bermudagrass (Cynodon dactylon), goosegrass (Eleusine indica), large crabgrass (Digitaria sanguinalis) and yellow nutsedge (Cyperus esculentus).
# (§4) The compound was formulated and sprayed with 0.25% X-77 surfactant in water. Plants were visually rated 21 and 29 days after treatment and compared with appropriate controls. Injury ratings were based on the scale of 0 to 100, where 0 indicates no effect, 20 indicates minimum effect and 100 indicates complete control. […]
# Pigweed = assay: Test 11 windowsill flats, postemergence; format: in vivo, Amaranthus spp.; conditions: Postemergence 32 g/ha, 0.25% X-77 surfactant, scale 0-100
# Method: as §3, §4
compound,measurement,setting,value
"COC(=O)c1cccnc1S(=O)(=O)NC(=O)Nc1nc(OC)cc(OC)n1 [Compound I, 2-[[(4,6-dimethoxypyrimidin-2-yl)aminocarbonyl]aminosulfonyl]-3-pyridinecarboxylic acid, methyl ester]",visual assessment of weed control,Bromus tectorum; 4 g/ha,50
same,visual assessment of weed control,Bromus tectorum; 8 g/ha,70
same,visual assessment of weed control,Bromus tectorum; 16 g/ha,80
same,visual assessment of weed control,Bromus tectorum; 32 g/ha,90
same,visual assessment of weed control,Bromus tectorum; 64 g/ha,90
same,visual assessment of weed control,Bromus tectorum; 125 g/ha,100
same,visual assessment of weed control,Hordeum vulgare; 4 g/ha,50
same,visual assessment of weed control,Hordeum vulgare; 8 g/ha,60
same,visual assessment of weed control,Hordeum vulgare; 16 g/ha,70
same,visual assessment of weed control,Hordeum vulgare; 32 g/ha,80
same,visual assessment of weed control,Hordeum vulgare; 64 g/ha,80
same,visual assessment of weed control,Hordeum vulgare; 125 g/ha,90
same,visual assessment of weed control,Kochia scoparia; 4 g/ha,80
same,visual assessment of weed control,Kochia scoparia; 8 g/ha,80
same,visual assessment of weed control,Kochia scoparia; 16 g/ha,100
same,visual assessment of weed control,Kochia scoparia; 32 g/ha,100
same,visual assessment of weed control,Kochia scoparia; 64 g/ha,100
same,visual assessment of weed control,Kochia scoparia; 125 g/ha,100
same,visual assessment of weed control,Secale cereale; 4 g/ha,20
same,visual assessment of weed control,Secale cereale; 8 g/ha,30
same,visual assessment of weed control,Secale cereale; 16 g/ha,40
same,visual assessment of weed control,Secale cereale; 32 g/ha,70
same,visual assessment of weed control,Secale cereale; 64 g/ha,80
same,visual assessment of weed control,Secale cereale; 125 g/ha,90
same,Control Rating 17 DAT,Guinea Grass,70
same,Control Rating 17 DAT,Narrowleaf panicum,90
same,Plant Injury Rating 27 DAT,Itchgrass; 8 g/ha,80
same,Plant Injury Rating 27 DAT,Itchgrass; 16 g/ha,80
same,Plant Injury Rating 27 DAT,Itchgrass; 32 g/ha,100
same,Plant Injury Rating 27 DAT,Itchgrass; 64 g/ha,100
same,safety to coffee,coffee,maintaining safety to coffee
same,Plant Injury Rating 18 DAT,Sheperdspurse; 16 g/ha,100
same,Plant Injury Rating 18 DAT,Sheperdspurse; 32 g/ha,100
same,Injury ratings,Yellow nutsedge,100
same,Injury ratings,Pigweed,100
